Assay results: publication PMC13171625, “Breaking the ‘rule-of-five’ to access bridged bicyclic heteroaromatic bioisosteres” (Nature Synthesis, 2026)
Like-named read-outs stand apart in the source and are kept apart here.

What was measured:
[1] = Metabolic stability in human liver microsomes; settings: for Remaining (T60): 60 min; for Remaining (NCF60): 1 h incubation, human liver microsomes, no co-factor (no NADPH); for remaining at 5 min, 1 μM / CLint scaled at 1 μM / half-life at 1 μM / microsomal CLint at 1 μM / remaining at 0.5 h, 1 μM / remaining at 0.75 h, 1 μM: human
[2] = human, microsomes
[3] = reference substances used to obtain the regression equation; cited from earlier work
[4] = LogP Assay (HPLC retention, pH 7.4); settings: X-Bridge C18 column (retention-time method)
in vitro = settings: human, microsomes
physchem = settings: pH 7.4
[5] = human liver microsomes with NADPH

CCc1ccccc1 [Ethylbenzene]
Log P of reference substance [3]: 3.2

CC(=O)c1ccncc1 [4-Acetylpyridine]
Log P of reference substance [3]: 0.5

COc1ccc(S(=O)(=O)N2CCN(C(=O)OCc3ccccc3)CC2C(=O)NO)cc1 (stereo not shown) [DB04232]
Remaining (T60) [1, 5]: 30.6%
Remaining (NCF60) [1]: 110.2%
CLint scaled at 1 μM ([1]; liver microsomes): 34.6 mL/min/kg
half-life at 1 μM ([1]; liver microsomes): 36 min
microsomal CLint at 1 μM ([1]; liver microsomes): 38.5 µL/min/mg
remaining at 5 min, 1 μM ([1]; liver microsomes): 82%
remaining at 0.5 h, 1 μM ([1]; liver microsomes): 59.3%
remaining at 0.75 h, 1 μM ([1]; liver microsomes): 38.5%
chromatographic logP [4]: 1.43

O=C(O)Cc1ccccc1Nc1c(Cl)cccc1Cl [Diclofenac]
%Remaining ([1]; 15 min, human liver microsomes with NADPH): 15.6%
Remaining (T60) [1, 5]: 0.1%
Remaining (NCF60) [1]: 96.1%
CLint(mic) (microsome intrinsic clearance) ([1]; human liver microsomes 0.5 mg/mL, 1 μM compound, NADPH): 232.5 µL/min/mg
CLint scaled at 1 μM ([1]; liver microsomes): 209 mL/min/kg
half-life at 1 μM ([1]; liver microsomes): 6 min
remaining at 5 min, 1 μM ([1]; liver microsomes): 49.4%
remaining at 0.5 h, 1 μM ([1]; liver microsomes): 2.6%
remaining at 0.75 h, 1 μM ([1]; liver microsomes): 0.5%

COc1ccc(S(=O)(=O)N2C3CN(C(=O)OCc4ccccc4)CC2(C(=O)NO)C3)cc1 (stereo not shown) [compound 68]
microsomal CLint at 1 μM ([1]; microsomes): 38.1 µL/min/mg
metabolic stability compared with DB04232 ([2]; 1 μM): at least as metabolically stable as DB04232
Remaining (NCF60) ([2]; 1 h, 1 μM): 86.9%
Remaining (T60) ([2]; 1 h, 1 μM): 28.3%
CLint scaled at 1 μM (in vitro): 34.3 mL/min/kg
half-life at 1 μM (in vitro): 36.3 min
remaining at 5 min, 1 μM (in vitro): 71.3%
remaining at 0.5 h, 1 μM (in vitro): 45.9%
remaining at 0.75 h, 1 μM (in vitro): 36.6%
chromatographic logP (physchem): 0.946
